The record followed here is ChEMBL document CHEMBL1201862, “PubChem BioAssay data set” (2004).

Test systems include XF498; SNB-78; LXFL 529; DMS-273; HOP-18; DLD-1; DMS-114; RXF 631; M19-MEL.
Test in all cases: NCI tumour cell line growth inhibition, 48 h

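Grown in 96-well plates, cells were treated for 48 hours with each compound at five concentrations. Insufficient inhibition: endpoint recorded as highest concentration tested. Abbreviation: GI50, concentration required for 50% inhibition of growth.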 The source made the active and inactive calls. No stated cut-off is given here; in the data, active = GI50 up to about 1.1 µM and inactive = higher. A value given as a limit tells only on which side of the number the result lay.

Take `CC1(C)OB(O)OC1(C)C`: the GI50 in the experiment on XF498, with SNB-78, with LXFL 529, in the experiment on DMS-273, in the experiment with HOP-18 and in the experiment with DLD-1 was > 100 µM (inactive) each time. For the same compound, in the experiment with DMS-114, the GI50 is > 100 µM (inactive).

For `O=C(O)/C(Cl)=C(\Cl)C(=O)NC1C2CC3CC(C2)CC1C3` (stereo not given), the GI50 was > 100 µM (inactive) in the experiment on XF498; > 100 µM (inactive) in the experiment on SNB-78; > 100 µM (inactive) in the experiment on LXFL 529; > 100 µM (inactive) with DMS-273; 61 µM (inactive) in the experiment with RXF 631; > 100 µM (inactive) with HOP-18. Also, the GI50 with DLD-1, in the experiment with M19-MEL and in the experiment with DMS-114 was > 100 µM (inactive) throughout.

Take `C/C(=C\CC/C=C(\C)CC/C=C(\C)CCC1SC1(C)C)CC/C=C(\C)CCC1OC1(C)C` (stereo not given): the GI50 was > 100 µM (inactive) in the experiment on XF498; > 100 µM (inactive) in the experiment on LXFL 529; > 100 µM (inactive) in the experiment on DMS-273; > 100 µM (inactive) in the experiment on HOP-18; > 100 µM (inactive) in the experiment with DLD-1; 71.4 µM (inactive) with M19-MEL. Also, the GI50 in the experiment on DMS-114 is 65.6 µM (inactive).

As for `CNC(=S)NC1CCCCC1NC(=S)NC` (stereo not given), the GI50 with XF498, in the experiment with SNB-78, in the experiment on LXFL 529, in the experiment on DMS-273, with RXF 631 and in the experiment on HOP-18 was > 100 µM (inactive) in each case. Besides, the GI50 in the experiment with DLD-1, in the experiment with M19-MEL and in the experiment on DMS-114 was > 100 µM (inactive) throughout.

In the case of `O=C(N/C(=C\c1cccc([N+](=O)[O-])c1)c1nc2ccccc2[nH]1)c1ccccc1`, the GI50 in the experiment on XF498 was 27.7 µM (inactive); with SNB-78 it was 44.6 µM (inactive); with LXFL 529 it was 26.1 µM (inactive); in the experiment on DMS-273, 69.2 µM (inactive); in the experiment with DLD-1, 55.5 µM (inactive); in the experiment with M19-MEL, 62.8 µM (inactive). For the same compound, in the experiment on DMS-114, the GI50 is 26.7 µM (inactive).

On to `Cc1ccc(C2=C(c3ccc(C)cc3)C(c3ccc(C)cc3)=C(c3ccc(C)cc3)C2=O)cc1`, for which the GI50 in the experiment on XF498, with SNB-78, in the experiment on LXFL 529, in the experiment on RXF 631, with HOP-18 and in the experiment with DLD-1 was > 100 µM (inactive) each time. For the same compound, the GI50 in the experiment with M19-MEL is > 100 µM (inactive).

On to `CC(C)c1ccc(C2NC(S)=NC3=C2c2ccccc2C3=O)cc1` (stereo not given), for which the GI50 in the experiment on XF498 is 32.4 µM (inactive); in the experiment on LXFL 529, 38.3 µM (inactive); in the experiment on DMS-273, 30 µM (inactive); in the experiment with RXF 631 it was 54 µM (inactive); with DLD-1, 48.5 µM (inactive); with M19-MEL, 38.9 µM (inactive). In the experiment with DMS-114, the GI50 is 21.3 µM (inactive).

As for `C1CCNCC1.S=C(S)N1CCCCC1`, the GI50 with SNB-78 is 100 µM (inactive); in the experiment on RXF 631 it was 4.43 µM (inactive); in the experiment on HOP-18, 100 µM (inactive); with M19-MEL it was 0.685 µM (active); in the experiment on DMS-114 it was 0.24 µM (active).

With `CC12CC3C(CC1SCC(=O)O2)C3(C)C` (stereo not given), the GI50 with XF498, in the experiment with SNB-78, with LXFL 529, in the experiment on DMS-273, in the experiment with HOP-18 and in the experiment on DLD-1 was > 100 µM (inactive) in each case. Also, the GI50 in the experiment on M19-MEL and with DMS-114 was > 100 µM (inactive) throughout.

As for `CN(C)C(=O)NC(=S)N(C)C`, the GI50 in the experiment on XF498, with SNB-78, in the experiment on LXFL 529, in the experiment with DMS-273, with HOP-18 and in the experiment on DLD-1 was > 100 µM (inactive) in each case. The GI50 in the experiment with M19-MEL and in the experiment with DMS-114 was > 100 µM (inactive) in each case.

With `CC(C)C(/C=C/c1ccc(Br)cc1)=N\NC(N)=O`, the GI50 was > 100 µM (inactive) with XF498; > 100 µM (inactive) in the experiment on SNB-78; 56.4 µM (inactive) with LXFL 529; > 100 µM (inactive) with DMS-273; > 100 µM (inactive) in the experiment with DLD-1; 12.2 µM (inactive) in the experiment on M19-MEL. In addition, the GI50 in the experiment on DMS-114 was > 100 µM (inactive).

For `COC(=O)c1nc(-c2ccc(Cl)c(Cl)c2)nc2ccc(Cl)cc12`, the GI50 is 6.59 µM (inactive) with SNB-78; > 100 µM (inactive) in the experiment on LXFL 529; 81.1 µM (inactive) with DMS-273; > 100 µM (inactive) in the experiment on DLD-1; > 100 µM (inactive) in the experiment on M19-MEL; 13.8 µM (inactive) in the experiment with DMS-114.

As to `Cc1nccc2c1cnc1ccnn12`, the GI50 in the experiment with SNB-78, in the experiment on LXFL 529, in the experiment with DMS-273, with RXF 631, in the experiment with DLD-1 and in the experiment with M19-MEL was > 100 µM (inactive) throughout. Moreover, the GI50 with DMS-114 is > 100 µM (inactive).

For `Cc1cn(C2CC(OC3CCCCO3)C(CO)O2)c(=O)[nH]c1=O` (stereo not given), the GI50 with XF498, with SNB-78, with LXFL 529, in the experiment on DMS-273, in the experiment with HOP-18 and with DLD-1 was > 100 µM (inactive) in each case. In the experiment on M19-MEL, the GI50 is > 100 µM (inactive).

As to `CC(=O)OC12c3ccccc3C1CCCCCC21OCCCO1` (stereo not given), the GI50 in the experiment on SNB-78, in the experiment with LXFL 529, in the experiment on DMS-273, with DLD-1, in the experiment with M19-MEL and in the experiment on DMS-114 was > 100 µM (inactive) each time.

Consider `CCc1ccc(/C(C)=N/NC(N)=S)cc1`, for which the GI50 is 0.569 µM (active) in the experiment with XF498; > 100 µM (inactive) in the experiment on SNB-78; > 100 µM (inactive) with HOP-18; > 100 µM (inactive) in the experiment on M19-MEL; 48.9 µM (inactive) with DMS-114.

Take `CCCC(=O)OCC(O)CO` (stereo not given): the GI50 in the experiment with SNB-78 is > 5000 µM (inactive); in the experiment with LXFL 529, > 5000 µM (inactive); with DMS-273, 4040 µM (inactive); in the experiment on HOP-18, 1730 µM (inactive); in the experiment with DLD-1, > 5000 µM (inactive); in the experiment on M19-MEL it was > 5000 µM (inactive). Also, the GI50 in the experiment with DMS-114 was > 5000 µM (inactive).

Consider `Cc1cc(C)nc(NS(=O)(=O)c2ccc(NC(=O)c3cccc4c(Nc5ccc(S(=O)(=O)N=C(N)N)cc5)c5ccccc5nc34)cc2)n1`, for which the GI50 with XF498 was > 100 µM (inactive); in the experiment on SNB-78, 8.3 µM (inactive); with LXFL 529, 3.88 µM (inactive); in the experiment with DMS-273, 19.7 µM (inactive); in the experiment on RXF 631, 27.3 µM (inactive); in the experiment on HOP-18, > 100 µM (inactive). In addition, the GI50 in the experiment on DLD-1 was 7.62 µM (inactive); in the experiment with M19-MEL it was 22.1 µM (inactive).

Take `CCOc1ccc(C2=NN(CC)C(=O)C(C3C(=O)N(c4ccccc4)N=C3C)C2)cc1` (stereo not given): the GI50 in the experiment on XF498, in the experiment with SNB-78, with LXFL 529, in the experiment with DMS-273, in the experiment on HOP-18 and in the experiment with DLD-1 was > 100 µM (inactive) throughout. For the same compound, the GI50 in the experiment on M19-MEL and in the experiment on DMS-114 was > 100 µM (inactive) throughout.

Turning to `CN(C)CC1CCC/C1=N\O` (stereo not given), the GI50 in the experiment on SNB-78, in the experiment with LXFL 529, in the experiment with DMS-273, in the experiment with HOP-18, in the experiment with DLD-1 and in the experiment with M19-MEL was > 100 µM (inactive) throughout.

Consider `CC(CC(=O)N1C(=O)C(C)(C)[C@@H](O)[C@H]1CC(C)C(Cl)(Cl)Cl)C(Cl)(Cl)Cl` (stereo not given in full), for which the GI50 in the experiment with XF498, in the experiment with SNB-78, in the experiment on LXFL 529, with DMS-273, in the experiment with HOP-18 and in the experiment on DLD-1 was > 100 µM (inactive) throughout. In addition, the GI50 in the experiment on M19-MEL and in the experiment on DMS-114 was > 100 µM (inactive) throughout.

For the compound `COC(=O)C1=C(c2cc(OC)c(OC)c(OC)c2)OC(c2ccc3c(c2)OCO3)C1` (stereo not given), the GI50 was 87.3 µM (inactive) in the experiment on SNB-78; 25.3 µM (inactive) in the experiment with LXFL 529; 25.4 µM (inactive) in the experiment with DMS-273; > 100 µM (inactive) in the experiment on HOP-18; 23 µM (inactive) with DLD-1; 21.1 µM (inactive) in the experiment on M19-MEL. Further, the GI50 in the experiment with DMS-114 is 13.9 µM (inactive).

Take `O=C(CCc1n[nH]c(=S)o1)Nc1cc(Cl)ccc1Cl`: the GI50 in the experiment with SNB-78 is > 100 µM (inactive); in the experiment on LXFL 529, 76.4 µM (inactive); in the experiment on DMS-273 it was 19.1 µM (inactive); with HOP-18 it was > 100 µM (inactive); in the experiment with DLD-1 it was 79.3 µM (inactive); in the experiment with M19-MEL, > 100 µM (inactive).

For `CCc1cccc(C)c1N1C(=O)C(=O)C(c2nc3ccccc3o2)/C(=N/NC(=S)NN)C1=O` (stereo not given), the GI50 with XF498, with SNB-78, with LXFL 529, in the experiment with DMS-273, in the experiment on RXF 631 and with DLD-1 was > 100 µM (inactive) each time. For the same compound, the GI50 with M19-MEL and in the experiment on DMS-114 was > 100 µM (inactive) in each case.

With `CCOc1ccc2[nH]c3c(C)c4ccncc4c(C)c3c2c1`, the GI50 is 0.984 µM (active) in the experiment with XF498; 1.34 µM (inactive) in the experiment with SNB-78; 0.698 µM (active) in the experiment with LXFL 529; 0.394 µM (active) with DMS-273; 1.27 µM (inactive) in the experiment on RXF 631; 0.561 µM (active) in the experiment on DLD-1. The GI50 with M19-MEL was 1.51 µM (inactive); in the experiment on DMS-114 it was 1.34 µM (inactive).

Turning to `COc1ccc2c(c1[N+](=O)[O-])CC[C@@H]1[C@@H]2CC[C@]2(C)C(=O)CC[C@@H]12`, the GI50 in the experiment on XF498 was 20.4 µM (inactive); with SNB-78, 24.7 µM (inactive); in the experiment with DMS-273 it was > 25 µM (inactive); with HOP-18, > 25 µM (inactive); in the experiment with DLD-1 it was > 25 µM (inactive); in the experiment with M19-MEL it was > 25 µM (inactive). The GI50 with DMS-114 was 18.4 µM (inactive).
